Assay results from patent EP0885006B1, “PHARMACEUTICAL COMPOSITION ENABLING TO INHIBIT CANCER METASTASIS FORMATION CONTAINING N-ACETYL-CYSTEINE AND DOXORUBICIN” (ZAMBON GROUP S.p.A., priority 1996, dated 1997).
Several values for one entry are separate records, joined by “and”; a condition that tells them apart may be missing. Equal values may be shown once.

Tested on: B16-BL6 murine melanoma cells
Assay: Tumorigenicity and "spontaneous" metastasis assay (s.c. footpad injection of cancer cells)
Type: in vivo, female C57BL/6 mice
Conditions: for Survival (days) (mean ± ES) / Lung metastases Frequency (%) / Lung metastases No. (mean ± ES) / Primary tumors Frequency (%) / Primary tumors Weight g (mean ± ES) / Local recurrencies Frequency (%) / Local recurrencies Weight g (mean ± ES): DOX+NAC same doses; for reduction in the number of lung metastases with respect to controls / reduction in the weight of primary tumors with respect to controls / weight of primary tumors 4 weeks after injection of cancer cells (effect in words) / reduction in the weight of local recurrencies with respect to controls: combined same doses
Procedure: DOX was used in the form of commercial injectable product, containing 10 mg of drug per vial (Adriblastina®, Farmitalia - Carlo Erba, Milano, Italia), to be dissolved in distilled water when injected. In the experiments wherein the oral administration was provided, NAC was used in the form of commercial product containing 200 mg of NAC per dosage (Fluimucil®, Zambon Italia, Vicenza), directly dissolved in the drinking water of mice. In the experiments wherein the parenteral (i.p. or i.v.) administration of NAC was foreseen, a 98% pure laboratory reagent (Sigma Chemical Co., St. Louis, MO, U.S.A.) was used, dissolved in a phosphate buffer (PBS), pH 7.4, and furtherly brought to neutrality with NaOH 0.1 N ("spontaneous" metastasis assays) or in NaCl 0.15 M, taking the solution to pH 7.0 (experimental metastasis assays).
A total of 385 adult mice was used (Charles River, Calco, Como, Italia) of which 196 female nude (CD-1)BR mice, aged 7 weeks, average weight of 25 g and 189 female C57BL/6 mice aged 6-8 weeks, average weight of 20 g, used in the experimental metastasis assays and in those of "spontaneous" metastases respectively. The (CD-1)BR mice were housed in sterile cages with filtering cover, in a number of 3 animals per cage, at a room temperature of 26-28°C, with a relative humidity of 55%, a ventilation accounting for 12-15 air/h renewals and a 12 hours day/night cycle; the C57BL/6 mice were stabulated in a number of 5 animals per cage, at a temperature of 25-27°C, with a relative humidity of 50% and a 12 hours day/night cycle. The (CD-1)BR mice received a special diet sterilized under vacuum (Mucedola S.r.L, Settimo Milanese, Milano, Italia) and sterilized drinking water; the C57BL/6 mice received a standard rodent diet (MIL Topi e Ratti, Morini, S. Polo d'Enza, Reggio Emilia, Italia) and drinking water ad libitum throughout the duration of the experiments. Within the experiments wherein the sacrifice of mice was foreseen at a scheduled time, killing was carried out by means of ethyl ether anaesthesia and subsequent cervical dislocation. The stabulation and all the animal treatments were carried out in accordance with the national and Community guidelines (D.L. 27.01.1992 N. 116; 86/609/EEC Directive).
In this kind of experiment, B16-BL6 murine melanoma cells were injected s.c. in the footpad of the right hind leg (5 x 10^5 cells/mouse in experiment #5, 2 x 10^5 cells/mouse in experiments #6, #7 and #8).
With such a technique a primary tumor is formed in the side of injection, from which starts the spread of metastases to the lungs.
Also in these experiments 4 groups were taken into consideration. In all the experiments NAC was administered with drinking water, at a dose of 2 g/kg body weight, starting 48-72 hours before injection of cancer cells and continuing until the end of each experiment. In experiment #5 DOX was administered by i.p. route (2 mg/kg body weight), 24 hours after injection of cancer cells. In experiments #6, #7 and #8 DOX was instead administered by i.v. route (10 mg/kg body weight), 24 hours (#6 and #7) or 7 days (#8) after injection of cancer cells.
In experiments #5, #7 and #8 mice were maintained until spontaneous death, so as to have indications also about the effect of treatment on survival. Both the primary tumors (frequency and weight) and the lung metastases (frequency and number) were therefore evaluated at the time of death.
In experiment #6 instead, 4 weeks after injection of the cancer cells, the leg carrying the primary tumor was removed. Further 4 weeks later the animals were killed, the tumors which gave recurrencies in the leg stump were excised and weighed, and the lung metastases were scored.
Four additional experiments, two of which partially overlapping (#7 and #8) were designed in order to evaluate the effects of NAC and DOX, individually or in combination, on the formation of local primary tumors and on the subsequent spread of lung metastases. […]

[1] = experiment #5, 5 x 10^5 cells/mouse, DOX 2 mg/kg i.p. +24h, NAC 2 g/kg p.o. -48 h/end
[2] = experiment #5, 5 x 10^5 cells/mouse, DOX 2 mg/kg i.p. +24h, NAC 2 g/kg p.o. -48 h/end, at spontaneous death
[3] = experiment #5, DOX 2 mg/kg i.p. +24 h, NAC 2 g/kg p.o.
[4] = experiment #6, 2 x 10^5 cells/mouse, DOX 10 mg/kg i.v. +24h, NAC 2 g/kg p.o. -48 h/56 days, leg removed 4 weeks after cells
[5] = experiment #6, 2 x 10^5 cells/mouse, DOX 10 mg/kg i.v. +24h, NAC 2 g/kg p.o. -48 h/56 days, sacrifice at 8 weeks
[6] = experiment #6, DOX 10 mg/kg +24 h, NAC 2 g/kg p.o.
[7] = experiment #6, DOX 10 mg/kg +24 h, NAC 2 g/kg p.o., 4 weeks
[8] = experiment #6, DOX 10 mg/kg +24 h, NAC 2 g/kg p.o., 8 weeks
[9] = experiment #7 (NAC group common to #7/8), DOX 10 mg/kg i.v. +24 h, NAC 2 g/kg p.o.
[10] = experiment #7, 2 x 10^5 cells/mouse, DOX 10 mg/kg i.v. +24h, NAC 2 g/kg p.o. -72 h/end
[11] = experiment #7, 2 x 10^5 cells/mouse, DOX 10 mg/kg i.v. +24h, NAC 2 g/kg p.o. -72 h/end, at spontaneous death
[12] = experiment #8, 2 x 10^5 cells/mouse, DOX 10 mg/kg i.v. +7 gg. (7 days), NAC 2 g/kg p.o. -72 h/end
[13] = experiment #8, 2 x 10^5 cells/mouse, DOX 10 mg/kg i.v. +7 gg. (7 days), NAC 2 g/kg p.o. -72 h/end, at spontaneous death

**Q.** Which results are given for `CC(=O)N[C@@H](CS)C(=O)O` [NAC, N-acetyl-cysteine]?
**A.** Survival (days) (mean ± ES) [1]: 32.2 ± 2.5 days; Lung metastases Frequency (%) [2]: 83.3%; Lung metastases No. (mean ± ES) [2]: 8.3 ± 6.8 No.; Primary tumors Frequency (%) [2]: 100.0%; Primary tumors Weight g (mean ± ES) [2]: 1.9 ± 0.4 g; weight of primary tumors (effect in words) [3]: more than halved; reduction in the number of lung metastases with respect to controls [3]: 7.2 fold; reduction in the weight of primary tumors with respect to controls [3]: 2.1 fold; Primary tumors Frequency (%) [4]: 93.3%; Primary tumors Weight g (mean ± ES) [4]: 0.28 ± 0.04 g; Local recurrencies Frequency (%) [5]: 53.3%; Local recurrencies Weight g (mean ± ES) [5]: 2.8 ± 0.8 g; Lung metastases Frequency (%) [5]: 45.5%; Lung metastases No. (mean ± ES) [5]: 12.9 ± 7.8 No.; weight of primary tumors 4 weeks after injection of cancer cells (effect in words) [6]: not affected; reduction in the weight of primary tumors with respect to controls [7]: 1.0 fold; reduction in the number of lung metastases with respect to controls [8]: 1.6 fold; reduction in the weight of local recurrencies with respect to controls [8]: 0.9 fold; reduction in the number of lung metastases with respect to controls [9]: 2.1 fold; Survival (days) (mean ± ES) [10]: 60.1 ± 3.7 days; Lung metastases Frequency (%) [11]: 18.2%; Lung metastases No. (mean ± ES) [11]: 9.5 ± 8.3 No.; Primary tumors Frequency (%) [11]: 100.0%; Primary tumors Weight g (mean ± ES) [11]: 1.9 ± 0.6 g; Survival (days) (mean ± ES) [12]: 60.1 ± 3.7 days; Lung metastases Frequency (%) [13]: 18.2%; Lung metastases No. (mean ± ES) [13]: 9.5 ± 8.3 No.; Primary tumors Frequency (%) [13]: 100.0%; Primary tumors Weight g (mean ± ES) [13]: 1.9 ± 0.6 g; inhibition in the frequency of lung metastases with respect to controls (experiments #7/8, NAC 2 g/kg p.o.): 4.8 fold; survival of mice (effect in words) (experiments #7 and #8, NAC 2 g/kg p.o., DOX 10 mg/kg i.v. +24 h or +7 days): enhanced remarkably the survival

**Q.** Which “Survival (days) (mean ± ES)” value [1] does the source give for `COc1cccc2c1C(=O)c1c(O)c3c(c(O)c1C2=O)C[C@@](O)(C(=O)CO)C[C@@H]3O[C@H]1C[C@H](N)[C@H](O)[C@H](C)O1` [DOX, Doxorubicin] here?
**A.** The value was 31.2 ± 4.7 days.

**Q.** What about the “Lung metastases Frequency (%)” value [2] of the same compound?
**A.** Its value is 100.0%.

**Q.** What about the “Lung metastases No. (mean ± ES)” value [2] of the same compound?
**A.** The value was 10.0 ± 6.4 No.

**Q.** And the “Primary tumors Frequency (%)” value [2]?
**A.** Its value is 100.0%.

**Q.** What about the “Primary tumors Weight g (mean ± ES)” value [2] of the same compound?
**A.** The value was 3.0 ± 1.3 g.

**Q.** And the “weight of primary tumors (effect in words)” value [3]?
**A.** Its value is “did not decrease to a significant extent”.

**Q.** And the “reduction in the number of lung metastases with respect to controls” value (“reduction in the number” below) [3]?
**A.** Its value is 6 fold and 6.0 fold.

**Q.** What about the “reduction in the weight of primary tumors with respect to controls” value [3] of the same compound?
**A.** The value was 1.3 fold.

**Q.** And the “Primary tumors Frequency (%)” value [4]?
**A.** The value was 92.3%.

**Q.** What about the “Primary tumors Weight g (mean ± ES)” value [4] of the same compound?
**A.** The value was 0.21 ± 0.05 g.

**Q.** And the “Local recurrencies Frequency (%)” value [5]?
**A.** Its value is 69.2%.

**Q.** What about the “Local recurrencies Weight g (mean ± ES)” value [5] of the same compound?
**A.** The value was 2.2 ± 0.7 g.

**Q.** And the “Lung metastases Frequency (%)” value [5]?
**A.** Its value is 75.0%.

**Q.** What about the “Lung metastases No. (mean ± ES)” value [5] of the same compound?
**A.** The value was 32.6 ± 12.2 No.

**Q.** What about the “weight of primary tumors 4 weeks after injection of cancer cells (effect in words)” value [6] of the same compound?
**A.** The value was “not affected”.

**Q.** And the “reduction in the weight of primary tumors with respect to controls” value [7]?
**A.** The value was 1.4 fold.

**Q.** And the “reduction in the number” value [8]?
**A.** Its value is 0.7 fold.

**Q.** What about the “reduction in the weight of local recurrencies with respect to controls” value [8] of the same compound?
**A.** Its value is 1.1 fold.

**Q.** And the “reduction in the number” value [9]?
**A.** Its value is 0.9 fold.

**Q.** And the “Survival (days) (mean ± ES)” value [10]?
**A.** Its value is 51.3 ± 1.9 days.

**Q.** And the “Lung metastases Frequency (%)” value [11]?
**A.** The value was 76.9%.

**Q.** And the “Lung metastases No. (mean ± ES)” value [11]?
**A.** Its value is 23.0 ± 10.0 No.

**Q.** And the “Primary tumors Frequency (%)” value [11]?
**A.** Its value is 100.0%.

**Q.** What about the “Primary tumors Weight g (mean ± ES)” value [11] of the same compound?
**A.** The value was 2.2 ± 0.6 g.

**Q.** And the “survival (effect in words)” value (experiment #7, DOX 10 mg/kg i.v. 24 hours after injection of cancer cells)?
**A.** Its value is “prolonged survival”.

**Q.** And the “Survival (days) (mean ± ES)” value [12]?
**A.** The value was 49.0 ± 2.8 days.

**Q.** What about the “Lung metastases Frequency (%)” value [13] of the same compound?
**A.** The value was 63.6%.

**Q.** What about the “Lung metastases No. (mean ± ES)” value [13] of the same compound?
**A.** The value was 12.6 ± 9.0 No.

**Q.** What about the “Primary tumors Frequency (%)” value [13] of the same compound?
**A.** The value was 100.0%.

**Q.** And the “Primary tumors Weight g (mean ± ES)” value [13]?
**A.** Its value is 2.3 ± 0.6 g.

**Q.** What about the “survival curves and mean survival time (effect in words)” value (experiment #8, DOX 10 mg/kg i.v. 7 days after injection of cancer cells, NAC 2 g/kg p.o.) of the same compound?
**A.** Its value is “did not affect the survival curves nor the mean survival time”.
